Experiments:
Sitophilus granarius = test: Efficacy of DMDS in a silo of wheat grains infested with Sitophilus granarius (adult mortality, % NER); assay type: in vivo; conditions: for Total No. of insects emerged: untreated control 271
Description: (§1) These two organisms are Sitophilus granarius and Sitophilus orizae.
(§2) Dimensions of the silo: • total height: 40 cm • total volume: 3.3 l • filling level: 75%, that is a grain height of […].
(§3) 99 mg of pure DMDS are deposited at the surface of the grains using a syringe. The samples collected consist of bundles of 50 g of wheat containing all the stages of development of the pathogenic organisms. After degassing by aeration of the silo at the times T, the bundles of wheat are screened and the adults are counted immediately after screening (D+0) and after 14 days (D+14). The wheat containing the other stages of development is then examined for 5 weeks.
The products CT of the concentrations C of DMDS by the times of measurement T are determined and the efficacy of the treatment in relation to the 2 pathogenic organisms studied for all the stages of development is monitored as a function of these products CT. The results are expressed: • as a percentage of the adult mortality at the times (D+0) and (D+14). • as a percentage of net emergence reduction (% NER) relative to an untreated control batch for the different stages of development of these organisms (that is to say eggs and 2nd generation, eggs and 1st stage larvae, 1st and 2nd stage larvae, 2nd and 3rd stage larvae, 3rd and 4th stage larvae, 4th stage larvae and nymphs), which corresponds to the following formula: % NER=(number of insects which emerged live from the control batch−number of insects which emerged live from the treated batch)/(number of insects which emerged live from the control batch).

Sitophilus orizae = test: Efficacy of DMDS in a silo of wheat grains infested with Sitophilus orizae; assay type: in vivo; conditions: same trial conditions, 20° C.
Description: as §1, §2, §3
The products CT of the concentrations C of DMDS by the times of measurement T are determined and the efficacy of the treatment in relation to the 2 pathogenic organisms studied for all the stages of development is monitored as a function of these products CT. […]
Under the same trial conditions, this time on organisms of the Sitophilus orizae type, similar results are obtained. The pesticidal efficacy of DMDS against the pathogenic organism Sitophilus orizae is evaluated in terms of the product CT at about 100 ghm^−3 (useful CT).

For `CSSC` [DMDS, dimethyl disulphide], the “% NER Eggs and 2nd generation” value (Sitophilus granarius; CT 5.8 gh.m^−3, 20° C.) was 13%, the “% NER Eggs and Ist stage larvae” value (Sitophilus granarius; CT 5.8 gh.m^−3, 20° C.) was 41% and the “% NER IIIrd and IVth stage larvae” value (Sitophilus granarius; CT 5.8 gh.m^−3, 20° C.) was 3%. For the same compound, the “% NER IInd and IIIrd stage larvae” value (Sitophilus granarius; CT 5.8 gh.m^−3, 20° C.) was 13%, the “% NER IVth stage larvae and nymphs” value (Sitophilus granarius; CT 5.8 gh.m^−3, 20° C.) was 21% and the “% NER Ist and IInd stage larvae” value (Sitophilus granarius; CT 5.8 gh.m^−3, 20° C.) was 20%. For the same compound, the “% adult mortality D + 0” value (Sitophilus granarius; CT 5.8 gh.m^−3, 20° C.) was 0%, the “% adult mortality D + 14” value (Sitophilus granarius; CT 5.8 gh.m^−3, 20° C.) was 8% and the “Total % NER” value (Sitophilus granarius; CT 5.8 gh.m^−3, 20° C.) was 25%. For the same compound, the “Total No. of insects emerged” value (Sitophilus granarius; CT 5.8 gh.m^−3, 20° C.) was 202, the “% NER Eggs and 2nd generation” value (Sitophilus granarius; CT 6.1 gh.m^−3, 20° C.) was 33% and the “% NER Eggs and Ist stage larvae” value (Sitophilus granarius; CT 6.1 gh.m^−3, 20° C.) was 5%. For the same compound, the “% NER IIIrd and IVth stage larvae” value (Sitophilus granarius; CT 6.1 gh.m^−3, 20° C.) was 19%, the “% NER IInd and IIIrd stage larvae” value (Sitophilus granarius; CT 6.1 gh.m^−3, 20° C.) was 16% and the “% NER IVth stage larvae and nymphs” value (Sitophilus granarius; CT 6.1 gh.m^−3, 20° C.) was 54%. The “% NER Ist and IInd stage larvae” value (Sitophilus granarius; CT 6.1 gh.m^−3, 20° C.) was 80%, the “% adult mortality D + 0” value (Sitophilus granarius; CT 6.1 gh.m^−3, 20° C.) was 3% and the “% adult mortality D + 14” value (Sitophilus granarius; CT 6.1 gh.m^−3, 20° C.) was 9%. The “Total % NER” value (Sitophilus granarius; CT 6.1 gh.m^−3, 20° C.) was 23%, the “Total No. of insects emerged” value (Sitophilus granarius; CT 6.1 gh.m^−3, 20° C.) was 208 and the “% NER Eggs and 2nd generation” value (Sitophilus granarius; CT 15.0 gh.m^−3, 20° C.) was 25%. The “% NER Eggs and Ist stage larvae” value (Sitophilus granarius; CT 15.0 gh.m^−3, 20° C.) was 54%, the “% NER IIIrd and IVth stage larvae” value (Sitophilus granarius; CT 15.0 gh.m^−3, 20° C.) was 26% and the “% NER IInd and IIIrd stage larvae” value (Sitophilus granarius; CT 15.0 gh.m^−3, 20° C.) was 71%. For the same compound, the “% NER IVth stage larvae and nymphs” value (Sitophilus granarius; CT 15.0 gh.m^−3, 20° C.) was 75%, the “% NER Ist and IInd stage larvae” value (Sitophilus granarius; CT 15.0 gh.m^−3, 20° C.) was 88% and the “% adult mortality D + 0” value (Sitophilus granarius; CT 15.0 gh.m^−3, 20° C.) was 64%. For the same compound, the “% adult mortality D + 14” value (Sitophilus granarius; CT 15.0 gh.m^−3, 20° C.) was 93%, the “Total % NER” value (Sitophilus granarius; CT 15.0 gh.m^−3, 20° C.) was 54% and the “Total No. of insects emerged” value (Sitophilus granarius; CT 15.0 gh.m^−3, 20° C.) was 126. For the same compound, the “% NER Eggs and 2nd generation” value (Sitophilus granarius; CT 26.9 gh.m^−3, 20° C.) was 20%, the “% NER Eggs and Ist stage larvae” value (Sitophilus granarius; CT 26.9 gh.m^−3, 20° C.) was 79% and the “% NER IIIrd and IVth stage larvae” value (Sitophilus granarius; CT 26.9 gh.m^−3, 20° C.) was 65%. For the same compound, the “% NER IInd and IIIrd stage larvae” value (Sitophilus granarius; CT 26.9 gh.m^−3, 20° C.) was 94%, the “% NER IVth stage larvae and nymphs” value (Sitophilus granarius; CT 26.9 gh.m^−3, 20° C.) was 92% and the “% NER Ist and IInd stage larvae” value (Sitophilus granarius; CT 26.9 gh.m^−3, 20° C.) was 88%. The “% adult mortality D + 0” value (Sitophilus granarius; CT 26.9 gh.m^−3, 20° C.) was 92%, the “% adult mortality D + 14” value (Sitophilus granarius; CT 26.9 gh.m^−3, 20° C.) was 92% and the “Total % NER” value (Sitophilus granarius; CT 26.9 gh.m^−3, 20° C.) was 72%. The “Total No. of insects emerged” value (Sitophilus granarius; CT 26.9 gh.m^−3, 20° C.) was 75, the “% NER Eggs and 2nd generation” value (Sitophilus granarius; CT 50.5 gh.m^−3, 20° C.) was 93% and the “% NER Eggs and Ist stage larvae” value (Sitophilus granarius; CT 50.5 gh.m^−3, 20° C.) was 100%. The “% NER IIIrd and IVth stage larvae” value (Sitophilus granarius; CT 50.5 gh.m^−3, 20° C.) was 97%, the “% NER IInd and IIIrd stage larvae” value (Sitophilus granarius; CT 50.5 gh.m^−3, 20° C.) was 100% and the “% NER IVth stage larvae and nymphs” value (Sitophilus granarius; CT 50.5 gh.m^−3, 20° C.) was 100%. For the same compound, the “% NER Ist and IInd stage larvae” value (Sitophilus granarius; CT 50.5 gh.m^−3, 20° C.) was 100%, the “% adult mortality D + 0” value (Sitophilus granarius; CT 50.5 gh.m^−3, 20° C.) was 100% and the “% adult mortality D + 14” value (Sitophilus granarius; CT 50.5 gh.m^−3, 20° C.) was 100%. For the same compound, the “Total % NER” value (Sitophilus granarius; CT 50.5 gh.m^−3, 20° C.) was 99%, the “Total No. of insects emerged” value (Sitophilus granarius; CT 50.5 gh.m^−3, 20° C.) was 4 and the “% NER Eggs and 2nd generation” value (Sitophilus granarius; CT 88.4 gh.m^−3, 20° C.) was 95%. For the same compound, the “% NER Eggs and Ist stage larvae” value (Sitophilus granarius; CT 88.4 gh.m^−3, 20° C.) was 100%, the “% NER IIIrd and IVth stage larvae” value (Sitophilus granarius; CT 88.4 gh.m^−3, 20° C.) was 100% and the “% NER IInd and IIIrd stage larvae” value (Sitophilus granarius; CT 88.4 gh.m^−3, 20° C.) was 100%. For the same compound, the “% NER IVth stage larvae and nymphs” value (Sitophilus granarius; CT 88.4 gh.m^−3, 20° C.) was 100%, the “% NER Ist and IInd stage larvae” value (Sitophilus granarius; CT 88.4 gh.m^−3, 20° C.) was 100% and the “% adult mortality D + 0” value (Sitophilus granarius; CT 88.4 gh.m^−3, 20° C.) was 100%. The “% adult mortality D + 14” value (Sitophilus granarius; CT 88.4 gh.m^−3, 20° C.) was 100%, the “Total % NER” value (Sitophilus granarius; CT 88.4 gh.m^−3, 20° C.) was 99% and the “Total No. of insects emerged” value (Sitophilus granarius; CT 88.4 gh.m^−3, 20° C.) was 2. The “% NER Eggs and 2nd generation” value (Sitophilus granarius; CT 160.4 gh.m^−3, 20° C.) was 100%, the “% NER Eggs and Ist stage larvae” value (Sitophilus granarius; CT 160.4 gh.m^−3, 20° C.) was 100% and the “% NER IIIrd and IVth stage larvae” value (Sitophilus granarius; CT 160.4 gh.m^−3, 20° C.) was 100%. The “% NER IInd and IIIrd stage larvae” value (Sitophilus granarius; CT 160.4 gh.m^−3, 20° C.) was 100%, the “% NER IVth stage larvae and nymphs” value (Sitophilus granarius; CT 160.4 gh.m^−3, 20° C.) was 100% and the “% NER Ist and IInd stage larvae” value (Sitophilus granarius; CT 160.4 gh.m^−3, 20° C.) was 100%. The “% adult mortality D + 0” value (Sitophilus granarius; CT 160.4 gh.m^−3, 20° C.) was 100%, the “% adult mortality D + 14” value (Sitophilus granarius; CT 160.4 gh.m^−3, 20° C.) was 100% and the “Total % NER” value (Sitophilus granarius; CT 160.4 gh.m^−3, 20° C.) was 100%. For the same compound, the “Total No. of insects emerged” value (Sitophilus granarius; CT 160.4 gh.m^−3, 20° C.) was 0, the “mortality for the majority of the stages” value (Sitophilus granarius; CT values greater than 50 gh.m^−3) was 100% and the “mortality for all the stages of development” value (Sitophilus granarius; product CT of 160 gh.m^−3) was 100%. For the same compound, the “pesticidal efficacy in terms of the product CT (useful CT)” value (Sitophilus granarius; wheat silo, 20° C.) was “about 100 ghm^−3” and the “pesticidal efficacy in terms of the product CT (useful CT)” value (Sitophilus orizae) was “about 100 ghm^−3”.
